Measurements published in patent publication US20090253634A1, “Methods and Compositions for the Treatment of Gastrointestinal Disorders” (MICROBIA, INC., priority 2005, published 2009).
Bridge positions count the residues as written; N and C are the ends. Peptide text beside a SMILES is read from it.

Key:
[1] = test system: abdominal EMG response to colorectal distension; experiment: colorectal distension in WT and GC-C KO mice, basal and TNBS-induced; assay type: in vivo; conditions: for TNBS induced hypersensitivity to CRD: oral 0.01 μg/kg
Procedure: TNBS induced visceral hypersensitivity was assessed in WT and GC-C KO mice. Two groups (WT and GC-C KO) of male mice (22-25g) were surgically prepared for electromyographic (EMG) recordings. Three electrodes were implanted in the striated muscles of the abdomen for EMG recording of abdominal contractions. Colorectal distension (CRD) was performed with a balloon inflated by 10 s steps of 0.02 ml from 0 to 0.12 ml. Under basal conditions mice were submitted to control CRD (time 0) followed by oral administration of SEQ ID NO:3 (0.01 and 0.3 μg/kg) or vehicle only (distilled water, 1 ml) at 3 hours. One hour post dosing the CRD procedure was repeated. Abdominal EMG contractile response to colorectal distension in basal conditions in both WT and GC-C KO mice (12-14 mice per group) was determined in the absence of vehicle and SEQ ID NO:3, and the mean +/− standard error of the mean (SEM) is graplhically depicted in FIG. 7c.
For TNBS induced visceral hypersensitivity conditions, mice were submitted to control CRD (time 0) and TNBS (20 mg/kg) was administered at 3 days. Three days post intracolonic TNBS-induction animals were orally admistered SEQ ID NO:3 (0.01 and 0.3 μg/kg) or vehicle (distilled water, 1 ml) 1 hour before CRD. The effect of SEQ ID NO:3 (0.01 μg/kg) on abdominal response to colorectal distension after TNBS in WT and GC-C KO mice (12-14 per group) at a volume distension of […] was determined and the mean +/− standard error of the mean (SEM) is graphically depicted in FIG. 7d.

[2] = oral bioavailability in rats, radioimmunoassay (RIA) detection; conditions: female, CD, rat, in vivo
Procedure: Oral bioavailability was also determined using a radioimmunoassay (RIA) detection method. Female CD-1 mice (Charles River, Wilmington, Mass.) weighing approximately 25g (7-8 weeks old) or female CD rats (Charles River, Wilmington, Mass.) weighing approximately 153 g were included in this study. Monoclonal antibody, 20C1 (Brandwein et al. 1985 Infect Immun. 47:242-246), which recognizes SEQ ID NO:7 and ^125I labeled-SEQ ID NO:7, a labeled tracer, were used in these experiments. The labeled tracer was purified by HPLC using a Waters C-18u Bondapak® column (25 cm) previously equilibrated with 10 mM ammonium acetate pH 5.8. A gradient from 0 to 25% acetonitrile was applied to the column in 60 min, followed by isocratic elution at 25% acetonitrile for another 20 min. This method separated two monoiodinated forms from each other and from unlabeled precursor (Thompson et al. 1985 Anal Biochem. 148:26-36). […] The labeled tracer bad a specific activity of 2200 Ci/mmol. The tracer was stored in aliquots at −20° C. Animals were fasted overnight before administration of compounds. Animals received SEQ ID NO:3 (rats—10 mg/kg; mice 8 mg/kg) or vehicle alone (20 mM Tris-HCl, ph7.5) intravenously or orally. Blood was drawn from all dosed animals by retro-orbital eye bleeding at specific intervals and test compound levels were analyzed by radioimmunoassay (RIA). SEQ ID NO:3 was extracted from the serum or plasma using Amersham Biosciences Amprep C18 columns (100 mg). Samples (80 μL) were first diluted to 0.5 mL with start buffer (8% methanol, 0.095% TFA in water) and applied to C18 columns previously conditioned with 1 mL methanol and equilibrated with 2 mL of start buffer. […] Radioactivity was measured in a LS 6500 scintillation counter (Beckman-Coulter). The binding efficiency is defined as the percent radioactivity in the B0 sample compared to the input counts. The percent bound in each sample was calculated by the equation: […]
A standard curve was prepared by plotting % B/B0 as a function of the log SEQ ID NO:3 concentration. […] Oral Bioavailabilty (F) is calculated using the equation: […]

[3] = test system: gastrointestinal transit; experiment: gastrointestinal transit assay in wild-type and GC-C KO mice; assay type: in vivo; conditions: oral 100 μg/kg
Procedure: Wild type and GC-C KO mice were fasted overnight and SEQ ID NO: 3 or vehicle alone were orally administered 10 minutes prior to an oral dose of a 10% Activated Carbon/10% Gum Arabic suspension. Animals were sacrificed […] after peptide or vehicle administration.

[4] = oral bioavailability in mice, radioimmunoassay (RIA) detection; design: species or system CD-1 mice; conditions: female, CD-1, mouse, in vivo, 8 mg/kg intravenous, read-out: AUCi.v.,(0-4h) (converted)
Procedure: Oral bioavailability was also determined using a radioimmunoassay (RIA) detection method. Female CD-1 mice (Charles River, Wilmington, Mass.) weighing approximately 25g (7-8 weeks old) or female CD rats (Charles River, Wilmington, Mass.) weighing approximately 153 g were included in this study. Monoclonal antibody, 20C1 (Brandwein et al. 1985 Infect Immun. 47:242-246), which recognizes SEQ ID NO:7 and ^125I labeled-SEQ ID NO:7, a labeled tracer, were used in these experiments. The labeled tracer was purified by HPLC using a Waters C-18u Bondapak® column (25 cm) previously equilibrated with 10 mM ammonium acetate pH 5.8. […] Blood was drawn from all dosed animals by retro-orbital eye bleeding at specific intervals and test compound levels were analyzed by radioimmunoassay (RIA). […] Radioactivity was measured in a LS 6500 scintillation counter (Beckman-Coulter). The binding efficiency is defined as the percent radioactivity in the B0 sample compared to the input counts. The percent bound in each sample was calculated by the equation: […]
A standard curve was prepared by plotting % B/B0 as a function of the log SEQ ID NO:3 concentration. […] The area under the curve from T=0 to 4 hours (AUC0-4h) was calculated by the software for both p.o. and i.v. dosed animals. […] Oral Bioavailabilty (F) is calculated using the equation: […]

SMILES: C[C@@H]1NC(=O)[C@@H]2CCCN2C(=O)[C@H](CC(N)=O)NC(=O)[C@@H]2CSSC[C@H](N)C(=O)N[C@H]3CSSC[C@H](NC1=O)C(=O)N[C@@H]([C@@H](C)O)C(=O)NCC(=O)N[C@H](C(=O)N[C@@H](Cc1ccc(O)cc1)C(=O)O)CSSC[C@H](NC(=O)[C@H](Cc1ccc(O)cc1)NC(=O)[C@H](CCC(=O)O)NC3=O)C(=O)N2 [SEQ ID NO:3] (H-CCEYCCNPACTGCY-OH; disulfide 1-6, 2-10, 5-13; N-terminus and C-terminus assumed)
- TNBS induced hypersensitivity to CRD ([1]; GC-C KO mice): not observed
- TNBS induced hypersensitivity to CRD ([1]; WT mice, volume distension of 0.8 ml): reduces the TNBS induced hypersensitivity to CRD
- EMG response to colorectal distension ([1]; basal conditions, WT mice, oral 0.01 and 0.3 μg/kg): decreased the EMG response to colorectal distension
- AUC ([2]; 10 mg/kg intravenous, read-out: AUCi.v.,(0-6h) (converted)): 23700 ng·h/mL
- AUC ([2]; 10 mg/kg oral, read-out: AUCp.o.,(0-6h) (converted)): 48.3 ng·h/mL
- bioavailability ([2]; oral, 10 mg/kg, over 6 hours): 0.2%
- gastrointestinal transit rate versus vehicle [3]: an increase (p<0.001) in gastrointestinal transit rate
- AUC [4]: 27700 ng·h/mL
